Measured values from patent US8980820B2, “Fatty acid binding proteins as drug targets for endocannabinoids” (The Research Foundation for the State University of New York, priority 2010, dated 2015).
Entries after “also recorded” stand apart in the source; their conditions may differ.

Assays:
[1] = stability of AEA during pre-equilibration in medium with BSA; type: physicochemical; conditions: 75 min in medium containing 0.15% BSA, data not shown
Experimental: Cells were plated at ˜90% confluency in 35 mm dishes, washed twice in DMEM and preincubated with the desired pharmacological compounds or vehicle controls (EtOH or DMSO). The cells were washed twice in DMEM and subsequently incubated for 5 min, 10 or 3 sec, with 750 μl [^14C]AEA (100 nM) that was pre-equilibrated for 75 min in medium containing 0.15% BSA. The equilibration step is necessary to avoid uneven distribution of the radiotracer and to ensure that it is stable in solution pre-bound to BSA. Less than 1% of AEA was hydrolyzed during this pre-equilibration step (data not shown). Following the incubation, 750 μl of ice-cold DMEM+0.15% BSA was added to the plates, the media separated from cells, which were then washed with DMEM+0.15% BSA to remove non-specifically bound AEA. The cells were scraped three times with 400 μl of ice-cold 2 mM EDTA in PBS and chloroform:methanol (1:1) added to the media and cells and the phases separated by centrifugation. The resulting aqueous (containing [^14C]ethanolamine) and organic (containing intact [^14C]AEA) phases were counted by liquid scintillation counting. [^14C]AEA uptake was determined by summing the production of [^14C]ethanolamine in the media and cells with intact cellular [^14C]AEA. Hydrolysis of [^14C]AEA was quantified by production of [^14C]ethanolamine in the media and cells. […]

N18TG2 cells = assay: [14C]AEA cellular uptake and hydrolysis in N18TG2 cells; type: cell-based, mouse
Experimental: (§1) COS-7 and N18TG2 cells were grown in DMEM supplemented with 10% fetal bovine serum, 100 U/ml penicillin/streptomycin, 2 mM L-glutamine, and 1 mM sodium pyruvate in a humidified incubator containing 95% air and 5% CO2. Transfections were carried out using Lipofectamine 2000 (Invitrogen, Carlsbad, Calif.) according to the manufacturer's instructions. For stable cell selection, forty eight hours after transfection cells were expanded in medium containing 750 μg/ml geneticin (Invitrogen, Carlsbad, Calif.). Four weeks later, stable cells were subjected to flow cytometry at the Flow Cytometry Core Facility in Stony Brook University and cells expressing identical levels of the indicated FAAH-eGFP fusion proteins were collected and expanded.
(§2) Cells were plated at ˜90% confluency in 35 mm dishes, washed twice in DMEM and preincubated with the desired pharmacological compounds or vehicle controls (EtOH or DMSO). The cells were washed twice in DMEM and subsequently incubated for 5 min, 10 or 3 sec, with 750 μl [^14C]AEA (100 nM) that was pre-equilibrated for 75 min in medium containing 0.15% BSA. The equilibration step is necessary to avoid uneven distribution of the radiotracer and to ensure that it is stable in solution pre-bound to BSA. Less than 1% of AEA was hydrolyzed during this pre-equilibration step (data not shown). Following the incubation, 750 μl of ice-cold DMEM+0.15% BSA was added to the plates, the media separated from cells, which were then washed with DMEM+0.15% BSA to remove non-specifically bound AEA. The cells were scraped three times with 400 μl of ice-cold 2 mM EDTA in PBS and chloroform:methanol (1:1) added to the media and cells and the phases separated by centrifugation. The resulting aqueous (containing [^14C]ethanolamine) and organic (containing intact [^14C]AEA) phases were counted by liquid scintillation counting. [^14C]AEA uptake was determined by summing the production of [^14C]ethanolamine in the media and cells with intact cellular [^14C]AEA. Hydrolysis of [^14C]AEA was quantified by production of [^14C]ethanolamine in the media and cells. Blanks consisting of either untransfected COS-7 cells or N18TG2 cells treated with 100 nM of the FAAH inhibitor URB597 were subtracted from all conditions.

FAAH [2] = biological target: T1, FAAH (Rattus norvegicus, UniProt P97612); assay: FAAH enzyme assay, COS-7-FAAH-eGFP homogenates; type: biochemical; conditions: 100 μM inhibitor, 100 μM [14C]AEA, p>0.05
T1 construct: N-terminal transmembrane helix (residues 1-29) in red, residues 30-579 in black, and eGFP in green; expressed in transfected cells
T1 sequence (P97612 1-579): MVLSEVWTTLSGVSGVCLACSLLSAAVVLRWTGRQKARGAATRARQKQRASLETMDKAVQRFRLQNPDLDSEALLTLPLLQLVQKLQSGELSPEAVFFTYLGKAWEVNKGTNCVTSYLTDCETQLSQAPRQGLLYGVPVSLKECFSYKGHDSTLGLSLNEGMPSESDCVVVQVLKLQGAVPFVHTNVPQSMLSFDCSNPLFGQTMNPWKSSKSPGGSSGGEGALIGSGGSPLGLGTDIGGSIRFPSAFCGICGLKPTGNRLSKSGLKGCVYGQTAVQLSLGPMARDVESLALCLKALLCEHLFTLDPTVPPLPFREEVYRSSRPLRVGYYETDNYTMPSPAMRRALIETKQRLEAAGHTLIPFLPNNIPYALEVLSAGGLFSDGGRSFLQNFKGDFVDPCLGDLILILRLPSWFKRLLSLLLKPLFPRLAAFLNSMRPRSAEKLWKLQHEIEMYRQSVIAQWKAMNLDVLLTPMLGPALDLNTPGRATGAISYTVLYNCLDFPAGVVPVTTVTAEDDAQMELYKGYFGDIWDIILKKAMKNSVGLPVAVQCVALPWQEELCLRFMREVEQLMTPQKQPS
Experimental: (§3) FAAH activity assays were performed as previously described. Briefly, cell homogenates were incubated with 100 μM AEA+0.1 μCi [^14C]AEA in Tris-HCl (pH 9) containing 0.1% BSA. For activity analysis, time and total protein were adjusted to maintain substrate conversion at approximately 10%. […] AEA (100 μM) for 1 or 30 min, respectively. Reactions were stopped by the addition of two volumes of 1:1 chloroform:methanol and the phases separated by centrifugation. The methanol phase (containing [^14C]ethanolamine) was sampled and quantified using a Beckman LS 6500 scintillation counter.

FAAH [3] = biological target: T2, FAAH (Mus musculus, UniProt O08914); assay: FAAH enzyme assay, N18TG2 homogenates; type: biochemical; conditions: 100 μM inhibitor, 100 μM [14C]AEA, p>0.05
T2 construct: endogenous in cells; host or cells: N18TG2 mouse neuroblastoma cells, used as homogenate
T2 sequence (O08914 1-579): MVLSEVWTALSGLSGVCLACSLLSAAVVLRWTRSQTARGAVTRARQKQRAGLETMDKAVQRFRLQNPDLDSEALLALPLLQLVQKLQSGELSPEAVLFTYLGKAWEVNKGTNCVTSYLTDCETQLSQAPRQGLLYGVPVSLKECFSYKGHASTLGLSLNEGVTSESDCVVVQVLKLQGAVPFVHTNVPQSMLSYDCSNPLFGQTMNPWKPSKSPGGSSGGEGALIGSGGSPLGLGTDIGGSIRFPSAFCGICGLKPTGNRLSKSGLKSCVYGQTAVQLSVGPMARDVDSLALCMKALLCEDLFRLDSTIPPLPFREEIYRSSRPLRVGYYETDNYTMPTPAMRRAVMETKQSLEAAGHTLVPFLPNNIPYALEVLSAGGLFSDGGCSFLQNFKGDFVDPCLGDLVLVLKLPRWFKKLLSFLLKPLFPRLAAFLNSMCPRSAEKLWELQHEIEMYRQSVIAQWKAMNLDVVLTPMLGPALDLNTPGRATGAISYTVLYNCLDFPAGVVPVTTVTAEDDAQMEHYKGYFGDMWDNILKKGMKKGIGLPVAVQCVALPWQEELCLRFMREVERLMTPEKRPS
Experimental: as §3

COS7-FAAH-eGFP cells = assay: [14C]AEA cellular uptake and hydrolysis in COS7-FAAH-eGFP cells; type: cell-based, African green monkey
Experimental: as §1, §2

[4] = 20-100 μM BMS309403, dose-dependent
[5] = 100 μM, 5 min, vs vehicle, p<0.05
[6] = oleic acid 100 μM, 5 min incubation, [14C]AEA 100 nM

Q: For CCCCC/C=C\C/C=C\C/C=C\C/C=C\CCCC(=O)NCCO [AEA, arachidonoyl ethanolamide], which “AEA hydrolyzed during pre-equilibration step” value [1] is on record?
A: Less than 1%

Q: Which results are given for CCc1c(-c2ccccc2)c(-c2ccccc2)nn1-c1ccccc1-c1cccc(OCC(=O)O)c1 [BMS309403]?
A: intracellular hydrolysis of [14C]AEA following uptake (N18TG2 cells; 3 sec, 20-100 μM): reduced; levels of cell associated [14C]AEA (N18TG2 cells; 3 sec, data not shown): without affecting; maximal inhibition of [14C]AEA uptake (N18TG2 cells; [4]): 57%; [14C]AEA hydrolysis (metabolism), effect in words (N18TG2 cells; 20-100 μM, vs vehicle): proportionally and significantly reduced; also recorded: significantly decreased; [14C]AEA uptake, effect in words (N18TG2 cells; 20-100 μM, vs vehicle): significantly decreased; [14C]AEA hydrolysis (FAAH activity) by homogenates (FAAH [2]): did not inhibit; also recorded: not inhibited; [14C]AEA hydrolysis (FAAH activity) by homogenates (FAAH [3]): did not inhibit; also recorded: not inhibited; intracellular hydrolysis of [14C]AEA following uptake (COS7-FAAH-eGFP cells; 3 sec, 20-100 μM): reduced; levels of cell associated [14C]AEA (COS7-FAAH-eGFP cells; 3 sec, data not shown): without affecting; maximal inhibition of [14C]AEA uptake (COS7-FAAH-eGFP cells; [4]): 48%; [14C]AEA hydrolysis (metabolism), effect in words (COS7-FAAH-eGFP cells; 20-100 μM, vs vehicle): proportionally and significantly reduced; also recorded: significantly decreased; [14C]AEA uptake, effect in words (COS7-FAAH-eGFP cells; 20-100 μM, vs vehicle): significantly decreased

Q: For CCCCCCCC/C=C\CCCCCCCC(=O)O [oleic acid], which “[14C]AEA hydrolysis, effect in words” value (N18TG2 cells; [5]) is on record?
A: significantly reduced

Q: And the “[14C]AEA uptake, effect in words” value (N18TG2 cells; [5])?
A: significantly reduced

Q: What about the “reduction of [14C]AEA uptake” value (N18TG2 cells; [6]) of the same compound?
A: 53%

Q: What about the “[14C]AEA hydrolysis (FAAH activity) by homogenates” value (FAAH [2]) of the same compound?
A: did not inhibit; also recorded: not inhibited

Q: And the “[14C]AEA hydrolysis (FAAH activity) by homogenates” value (FAAH [3])?
A: did not inhibit; also recorded: not inhibited

Q: What about the “[14C]AEA hydrolysis, effect in words” value (COS7-FAAH-eGFP cells; [5]) of the same compound?
A: significantly reduced

Q: What about the “[14C]AEA uptake, effect in words” value (COS7-FAAH-eGFP cells; [5]) of the same compound?
A: significantly reduced

Q: And the “reduction of [14C]AEA uptake” value (COS7-FAAH-eGFP cells; [6])?
A: 25%
